According to ChEMBL document CHEMBL3259515, “Further studies on ethyl 5-hydroxy-indole-3-carboxylate scaffold: design, synthesis and evaluation of 2-phenylthiomethyl-indole derivatives as efficient inhibitors of human 5-lipoxygenase” (Eur J Med Chem, 2014):
Activity calls are given as the source filed them. The calls are words filed in the database; no cut-off is given here.

How the values were obtained:
[1] = biological target: T1, Polyunsaturated fatty acid lipoxygenase ALOX12 (Homo sapiens) (UniProt P18054); test: Inhibition of 12-LO-mediated 12-H(P)ETE production in human polymorphonuclear leukocytes assessed as remaining activity preincubated at 10 uM for 15 mins by HPLC analysis; type: cell-based
T1 sequence (whole entry): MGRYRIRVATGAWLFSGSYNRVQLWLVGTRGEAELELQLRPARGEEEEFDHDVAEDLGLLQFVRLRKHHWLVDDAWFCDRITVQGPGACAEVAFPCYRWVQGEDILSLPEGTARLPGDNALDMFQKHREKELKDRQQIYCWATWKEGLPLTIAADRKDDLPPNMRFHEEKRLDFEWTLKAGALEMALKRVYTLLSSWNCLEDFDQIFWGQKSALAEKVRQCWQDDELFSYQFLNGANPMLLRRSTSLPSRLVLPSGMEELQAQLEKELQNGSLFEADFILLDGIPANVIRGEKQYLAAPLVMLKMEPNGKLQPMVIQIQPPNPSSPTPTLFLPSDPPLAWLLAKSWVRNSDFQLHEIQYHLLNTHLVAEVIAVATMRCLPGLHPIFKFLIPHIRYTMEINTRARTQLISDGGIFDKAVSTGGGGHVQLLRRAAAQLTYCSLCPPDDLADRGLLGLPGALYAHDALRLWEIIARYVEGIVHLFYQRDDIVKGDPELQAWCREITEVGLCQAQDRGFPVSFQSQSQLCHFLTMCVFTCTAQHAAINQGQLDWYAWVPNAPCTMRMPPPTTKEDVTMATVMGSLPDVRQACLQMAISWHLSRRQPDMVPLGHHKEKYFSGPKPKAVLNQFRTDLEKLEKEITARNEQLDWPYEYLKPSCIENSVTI

[2] = biological target: T2, Polyunsaturated fatty acid lipoxygenase ALOX15 (Homo sapiens) (UniProt P16050); test: Inhibition of 15-LO-mediated 15-H(P)ETE production in human polymorphonuclear leukocytes assessed as remaining activity preincubated at 10 uM for 15 mins by HPLC analysis; type: cell-based
T2 sequence (whole entry): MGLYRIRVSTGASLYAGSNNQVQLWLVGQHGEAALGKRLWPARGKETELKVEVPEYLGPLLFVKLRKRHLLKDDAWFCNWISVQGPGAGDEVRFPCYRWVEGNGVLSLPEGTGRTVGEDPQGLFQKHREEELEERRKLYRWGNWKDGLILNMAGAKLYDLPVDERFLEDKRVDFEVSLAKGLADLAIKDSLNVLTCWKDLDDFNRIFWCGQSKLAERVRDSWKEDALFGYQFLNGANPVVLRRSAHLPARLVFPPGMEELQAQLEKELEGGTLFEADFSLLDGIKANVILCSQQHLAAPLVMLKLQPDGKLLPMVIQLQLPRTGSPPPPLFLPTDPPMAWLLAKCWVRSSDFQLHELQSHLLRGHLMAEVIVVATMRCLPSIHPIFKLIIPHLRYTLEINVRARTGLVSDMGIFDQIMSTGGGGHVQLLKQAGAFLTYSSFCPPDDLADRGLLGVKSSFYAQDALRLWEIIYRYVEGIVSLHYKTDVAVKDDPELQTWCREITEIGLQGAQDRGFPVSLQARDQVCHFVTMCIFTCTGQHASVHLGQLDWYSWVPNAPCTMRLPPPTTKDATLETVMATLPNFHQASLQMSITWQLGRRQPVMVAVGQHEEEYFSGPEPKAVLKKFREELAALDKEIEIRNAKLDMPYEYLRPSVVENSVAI

[3] = biological target: T3, Prostaglandin G/H synthase 1 (Ovis aries) (UniProt P05979); test: Inhibition of purified ovine COX1 preincubated for 5 mins by HPLC analysis
T3 sequence (whole entry): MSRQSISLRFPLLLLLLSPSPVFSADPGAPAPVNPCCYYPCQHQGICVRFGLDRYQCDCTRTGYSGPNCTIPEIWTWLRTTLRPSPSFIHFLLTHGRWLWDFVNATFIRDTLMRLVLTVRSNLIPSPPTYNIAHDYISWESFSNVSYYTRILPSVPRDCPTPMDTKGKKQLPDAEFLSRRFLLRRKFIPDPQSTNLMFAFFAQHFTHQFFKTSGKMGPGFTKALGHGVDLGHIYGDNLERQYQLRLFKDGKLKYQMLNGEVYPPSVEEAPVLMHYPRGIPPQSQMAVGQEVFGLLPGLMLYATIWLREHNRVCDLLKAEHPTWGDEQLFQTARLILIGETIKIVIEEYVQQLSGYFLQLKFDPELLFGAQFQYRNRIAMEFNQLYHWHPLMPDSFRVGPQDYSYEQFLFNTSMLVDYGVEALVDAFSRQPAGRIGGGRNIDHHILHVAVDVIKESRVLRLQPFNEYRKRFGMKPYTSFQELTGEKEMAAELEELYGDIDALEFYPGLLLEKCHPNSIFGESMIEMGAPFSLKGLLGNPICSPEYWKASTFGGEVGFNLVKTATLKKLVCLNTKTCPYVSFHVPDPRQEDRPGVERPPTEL

[4] = biological target: T4, Polyunsaturated fatty acid 5-lipoxygenase (Homo sapiens, UniProt P09917); test: Inhibition of human recombinant 5-LO expressed in Escherichia coli BL21 using arachidonic acid as substrate preincubated for 5 to 10 mins by HPLC analysis
T4 sequence (P09917 whole entry): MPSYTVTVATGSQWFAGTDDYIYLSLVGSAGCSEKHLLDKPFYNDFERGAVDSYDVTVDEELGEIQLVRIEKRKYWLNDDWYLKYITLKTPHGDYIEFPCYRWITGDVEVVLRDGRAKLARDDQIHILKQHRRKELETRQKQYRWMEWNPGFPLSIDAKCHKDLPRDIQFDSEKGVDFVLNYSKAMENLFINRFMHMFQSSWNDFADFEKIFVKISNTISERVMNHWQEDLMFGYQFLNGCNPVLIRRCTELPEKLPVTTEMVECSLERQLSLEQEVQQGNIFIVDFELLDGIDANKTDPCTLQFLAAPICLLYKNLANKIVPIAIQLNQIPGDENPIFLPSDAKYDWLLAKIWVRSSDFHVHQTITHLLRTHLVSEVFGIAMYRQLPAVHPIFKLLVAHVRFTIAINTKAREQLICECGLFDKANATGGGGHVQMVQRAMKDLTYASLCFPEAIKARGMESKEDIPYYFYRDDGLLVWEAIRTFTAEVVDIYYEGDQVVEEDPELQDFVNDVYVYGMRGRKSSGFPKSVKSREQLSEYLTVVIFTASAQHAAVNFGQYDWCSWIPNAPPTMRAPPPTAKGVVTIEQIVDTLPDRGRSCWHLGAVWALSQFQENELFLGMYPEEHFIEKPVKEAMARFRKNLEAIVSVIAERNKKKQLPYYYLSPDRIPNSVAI

[5] = biological target: T5, Prostaglandin G/H synthase 2 (Homo sapiens) (UniProt P35354); test: Inhibition of human recombinant COX2 preincubated for 5 mins by HPLC analysis
T5 sequence (whole entry): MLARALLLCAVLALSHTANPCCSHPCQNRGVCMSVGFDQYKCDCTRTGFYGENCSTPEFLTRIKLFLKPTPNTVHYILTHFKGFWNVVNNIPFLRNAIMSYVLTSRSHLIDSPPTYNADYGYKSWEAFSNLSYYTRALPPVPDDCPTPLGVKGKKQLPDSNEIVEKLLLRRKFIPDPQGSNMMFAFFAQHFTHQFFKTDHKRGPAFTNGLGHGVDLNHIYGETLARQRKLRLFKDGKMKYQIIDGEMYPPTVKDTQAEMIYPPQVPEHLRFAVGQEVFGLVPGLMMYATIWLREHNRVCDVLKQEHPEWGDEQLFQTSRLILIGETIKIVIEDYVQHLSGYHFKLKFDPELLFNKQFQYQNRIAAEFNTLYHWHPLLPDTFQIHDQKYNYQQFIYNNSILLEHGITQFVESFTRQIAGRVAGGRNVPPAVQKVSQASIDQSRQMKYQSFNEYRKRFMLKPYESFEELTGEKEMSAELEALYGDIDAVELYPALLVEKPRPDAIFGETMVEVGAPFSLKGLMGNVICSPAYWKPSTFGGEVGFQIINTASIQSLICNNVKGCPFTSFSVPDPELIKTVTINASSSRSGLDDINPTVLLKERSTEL

[6] = biological target: T6, Polyunsaturated fatty acid lipoxygenase ALOX15 (Homo sapiens, UniProt P16050); test: Inhibition of 15-LO in human polymorphonuclear leukocytes assessed as inhibition of 15-H(P)ETE production from arachidonic acid preincubated for 15 mins by HPLC analysis; type: cell-based
T6 sequence (P16050 whole entry): T2 sequence (whole entry)

[7] = biological target: T4, Polyunsaturated fatty acid 5-lipoxygenase; test: Inhibition of 5-LO in human polymorphonuclear leukocytes assessed as inhibition of LTB4 production from arachidonic acid preincubated for 15 mins by HPLC analysis; type: cell-based

Compound: N#C/C(=C\c1ccc(O)c(O)c1)C(=O)OC/C=C/c1ccccc1
- Activity [1]: 5.6%
- Activity [2]: 11.1%

Compound: CCOC(=O)c1c(CSc2c(C)cc(C)cc2C)n(C)c2ccc(O)cc12
- Activity [1]: 86.5%
- inhibition [3]: inactive
- IC50 [4]: 0.7 µM
- inhibition [5]: inactive
- Activity [2]: 33%
- IC50 [6]: 8.2 µM
- IC50 [7]: 0.23 µM

Compound: CCOC(=O)c1c(CSc2c(Cl)cccc2Cl)n(C)c2ccc(O)cc12
- Activity [1]: 103%
- inhibition [3]: inactive
- IC50 [4]: 0.8 µM
- inhibition [5]: inactive
- Activity [2]: 136%
- IC50 [7]: 0.9 µM

Compound: CCOC(=O)c1c(CSc2ccc(OC)cc2)n(C)c2ccc(O)cc12
- Activity [1]: 92.1%
- IC50 [4]: 2.3 µM
- Activity [2]: 128%
- IC50 [7]: 3.1 µM

Compound: CCOC(=O)c1c(CSc2ccc(OC(F)(F)F)cc2)n(C)c2ccc(O)cc12
- Activity [1]: 94.1%
- IC50 [4]: 0.9 µM
- Activity [2]: 107%
- IC50 [7]: 2.1 µM

Compound: CCOC(=O)c1c(CSc2cc(C)cc(C)c2)n(C)c2ccc(O)cc12
- Activity [1]: 107%
- IC50 [4]: 1.8 µM
- Activity [2]: 150%
- IC50 [7]: 2.7 µM

Compound: CCOC(=O)c1c(CSc2cccc(Cl)c2)n(C)c2ccc(O)cc12
- Activity [1]: 92.9%
- IC50 [4]: 3.8 µM
- Activity [2]: 114%
- IC50 [7]: > 10 µM

Compound: CCOC(=O)c1c(CSc2ccc(F)cc2)n(C)c2ccc(O)cc12
- Activity [1]: 100%
- IC50 [4]: 5 µM
- Activity [2]: 120%
- IC50 [7]: 9.1 µM

Compound: CCOC(=O)c1c(CSc2ccccc2OC)n(C)c2ccc(O)cc12
- Activity [1]: 108%
- IC50 [4]: 2.9 µM
- Activity [2]: 136%
- IC50 [7]: 5.1 µM

Compound: CCOC(=O)c1c(CSc2ccccc2)n(C)c2ccc(O)cc12
- Activity [1]: 92.4%
- IC50 [4]: 5.7 µM
- Activity [2]: 130%
- IC50 [7]: 2.4 µM

Compound: CCOC(=O)c1c(CSc2ccc(F)cc2F)n(C)c2ccc(O)cc12
- Activity [1]: 91.4%
- IC50 [4]: 3.2 µM
- Activity [2]: 102%
- IC50 [7]: 6.8 µM

Compound: CCOC(=O)c1c(CSc2ccc(C(F)(F)F)cc2)n(C)c2ccc(O)cc12
- Activity [1]: 102%
- IC50 [4]: 4.2 µM
- Activity [2]: 114%
- IC50 [7]: > 10 µM

Compound: CCOC(=O)c1c(CSc2ccccc2C(F)(F)F)n(C)c2ccc(O)cc12
- Activity [1]: 104%
- IC50 [4]: 0.8 µM
- Activity [2]: 126%
- IC50 [7]: 1.2 µM

Compound: CCOC(=O)c1c(CSc2c(C)cccc2C)n(C)c2ccc(O)cc12
- Activity [1]: 94.1%
- IC50 [4]: 0.8 µM
- Activity [2]: 125%
- IC50 [7]: 1.2 µM
